According to patent US20260240792A1, “COMPOSITIONS FOR TREATING 5-HT2 CONDITIONS AND METHODS OF USING THE SAME” (Board of Supervisors of Louisiana State University and …, priority 2022, published 2026):
Values joined by “and” are separate entries in the source; they are usually repeats but may differ in a detail not shown here. Identical values can stand only once. “Also recorded” adds a separate entry of the source.

Tests used:
[1] = tested on: rabbits; assay: Intraocular pressure (IOP) after topical ocular dosing in rabbits; assay type: in vivo, rabbit; conditions: for Ave OS 2 hpt IOP: left eye; for Ave OS 2 hpt IOP / Avg OD 2 hpt IOP: 2 hours after dosing
Protocol: The IOP was assessed as a component of clinical outcomes for the animals in the studies described herein. The table below represents the effect of R-DOI on IOP 2 hours after dosing with the indicated concentration of R-DOI. Eyes were individually assessed and are indicated as IOP for the right (OD) or left (OS) eye.
Each eye of each rabbit was then assessed for initial IOP by tonometer.
IOP determinations were made at 30 minutes, 1 hour, 1.5 hours and 2.5 hours-eyes were examined closely for any adverse effects during these IOP measures.
(§1) 3 days post treatment at the same time initial measures were made, IOP and tear film production were re-assessed to examine if effects were sustained post 1 treatment.
The IOP was assessed via a TonoVet rebound Tonometer. The tables herein (see, for example, FIG. 4) represent the effect of Compound 1 on IOP at time intervals within the first 2.5 hours after dosing with 0.01% Compound 1 in BSS with 0.5% CMC. Eyes were individually assessed and are indicated as IOP for the right (OD) or left (OS) eye. 3 days post treatment eyes were reassessed for IOP changes to see if the effects of treatment lasted over a prolonged period.
(§2) • Rabbits were assessed for clinically clear eyes by slit lamp ophthalmic scoring. All eyes of all rabbits were normal. • Each eye of each rabbit was then assessed for initial IOP by tonometer. • Each eye of each rabbit was assessed for tear film production by Schirmer's Tear Flo Strips at a 30 second interval of analysis. Tear measures were evaluated by a digital caliper to determine mm of tears collected. • Rabbits were sorted into two groups attempting to balance IOP numbers (one higher, one lower animal per group). • Following animals were treated with 50 μL of Control ophthalmic BSS/0.5% CMC or 0.01% R-DOI HCl in ophthalmic BSS/0.5% CMC. • Any apparent behavioral changes were continuously monitored over the next 2.5 hours. • IOP determinations were made at 30 minutes, 1 hour, 2 hours and 3 hours, 5 hours, 7 hours and 24 hours-eyes were examined closely for any adverse effects during these IOP measures. • 7 hours post treatment when IOP returned to control levels tear film production was assessed (see, for example, FIG. 9).
The IOP was assessed via a TonoVet rebound Tonometer. The tables herein (see, for example, FIGS. 10-11) represents the effect of R-DOI on IOP at the defined time intervals Eyes were individually assessed and are indicated as IOP for the right (OD) or left (OS) eye.

[2] = tested on: rabbits; assay: Tear film production by Schirmer's Tear Flo Strips in rabbits; assay type: in vivo, rabbit
Protocol: Each eye of each rabbit was assessed for tear film production by Schirmer's Tear Flo Strips at a 30 second interval of analysis. Tear measures were evaluated by a digital caliper to determine mm of tears collected.
as §1
Effects of Compound 1 on Tear Production: Current IOP lowering glaucoma drugs eventually have effects on tear production resulting in dry eye conditions. Further, there are additional associations between dry eye and glaucoma, with co-incidence of the two conditions quite common. […] Selective 5-HT agonists/antagonists can reverse symptoms of dry eye-a very large ophthalmic market. The effects of Compound 1 on tear film production (see, for example, FIG. 6 panels A-D) were therefore assessed by a Schirmer's Tear Flo strip and measured using a digital micrometer caliper.
as §2
Effects of R-DOI on Tear Production: Current IOP lowering glaucoma drugs eventually have effects on tear production resulting in dry eye conditions. Further, there are additional associations between dry eye and glaucoma, with co-incidence of the two conditions common. […] Selective 5-HT agonists/antagonists can reverse symptoms of dry eye-a very large ophthalmic market. The effects of R-DOI on tear film production were therefore assessed by a Schirmer's Tear Flo strip and measured using a digital micrometer caliper.

[3] = Weight changes across 1 week of dosing; assay type: in vivo, rabbit
[4] = Solubility in ophthalmic eye drop (BSS, 0.5% CMC); assay type: physicochemical; conditions: 0.1% (5 mg/5 mL) in BSS with 0.5% CMC, pH 7.0
Protocol: Non-Limiting, Exemplary Findings Discussed within: • The NCE Compound 1 was formulated within an ophthalmic eye drop with BSS and 0.5% carboxymethylcellulose (CMC) at percentages of 0.1% (5 mg/5 ml) and lower with a pH of 7.0.
• The R-DOI HCl was formulated within an ophthalmic eye drop with BSS and 0.5% carboxymethylcellulose (CMC) at percentages of 0.1% (5 mg/5 mL) and lower with a pH of 7.0.

[5] = 0.01% single dose, group E5/E6, 2 h
[6] = 0.1% single dose, group E3/E4, 2 h
[7] = 0.01% (1 dose/day day 1, 2 dose/day day 2, 4 dose/day days 3-5)
[8] = 0.1% day 1, then 0.05% (2 dose/day day 2, 4 dose/day days 3-5)

## COc1cc(C[C@@H](C)N)c(OC)cc1I [R-DOI, (R)-1-(2,5-dimethoxy-4-iodophenyl)-2-aminopropane]
[1]; 0.01% single dose
  time post administration by which a significant decrease in IOP was shown: ≤ 30 min
  Ave OS 2 hpt IOP: 13.50 and 7.00
[1]; 0.01% single dose, IOP followed to 24 hours
  whether the decrease in intraocular pressure was sustained: not sustained following 3 hours post treatment
[1]; [5]
  Avg % change Group: −53.33%
  Avg Delta Eye Group: −7.75
[1]; 0.01% single dose, right eye
  Avg OD 2 hpt IOP: 12.25 and 7.00
[1]; 0.01% single dose, right eye, 2 h vs starting IOP
  % Change (OD): −56.67% and −50.00%
[1]; [6]
  Avg % change Group: −30.77%
  Avg Delta Eye Group: −4.94
[1]; 0.1% single dose
  Ave OS 2 hpt IOP: 13.25 and 9.00
[1]; 0.1% single dose, right eye
  Avg OD 2 hpt IOP: 11.50 and 13.25
[1]; single topical ocular dose
  effect on intraocular pressure: decreased IOP with the greatest reduction of IOP observed for the lower R-DOI dosages; also recorded: acutely decreased intraocular pressure with a single dose
[2]; 0.01% single dose, 7 h post treatment
  average increase in tear film production: 2.27 mm
[2]; topical ocular dose
  tear production as measured by Schirmer's test: increased tear production relative to initial and control treatment; also recorded: significant increase in tear production
[3]; [7]
  1 week weight: 3.17 kg and 2.89 kg
  1 week weight change: 0.11 and 0.07
[3]; 0.01% or 0.05% repeated dosing, 1 week
  weight with repeated dosing: no loss of weight with repeated dosing
[3]; [8]
  1 week weight: 2.96 kg and 2.79 kg
  1 week weight change: 0.08 and 0.09
[4]
  Solubility of the compound: good with no remaining precipitates
